Data taken from US4159373A, “7-Acyl-3-(sulfonic acid and sulfamoyl substituted tetrazolyl thiomethyl) cephalosporins” (SmithKline Corporation, priority 1978, dated 1979).
≈ marks a conversion by molar mass, not a printed value. Where two headings read alike, the source gives them in different places.

Experiments:
[1] = test system: Entero. aerog. ATCC 13048; assay: MIC in vitro; type: cell-based, Enterobacter aerogenes; conditions: Klebsiella aerogenes
Description: (§1) The compounds of Formula I have exceptional antibacterial activity against both Gram-positive and Gram-negative organisms. Minimum inhibitory concentrations (MIC's) ranged from 0.2 to <200 μg./ml. in in vitro testing.

E. coli 12140 = assay: In vivo mouse protection, E. coli 12140; conditions: Table 2, E. coli 12140, read-out: ED50 in vivo
Entero. cloacae HH 31254 = assay: MIC in vitro; type: cell-based; conditions: Enterobacter cloacae
Kleb. pneumo. SK 1200 = assay: MIC in vitro; type: cell-based, Kleb. pneumoniae; conditions: Klebsiella pneumoniae, read-out: MIC in vitro
Description: as §1

Kleb. pneumo. SK 4200 = assay: MIC in vitro; type: cell-based, Kleb. pneumoniae; conditions: Table 1, Kleb. pneumo. SK 4200; for MIC: Klebsiella pneumoniae, read-out: MIC in vitro
Description: as §1

E. coli SK 12140 = assay: MIC in vitro; type: cell-based; conditions: Escherichia coli, E. coli SK 12140
Description: as §1

shigella HH 117 = assay: MIC in vitro; type: cell-based
Description: as §1

Strep. Faecalis HH 34358 = assay: MIC in vitro; type: cell-based; conditions: Table 1, Strep. Faecalis HH 34358; for MIC: Enterococcus faecalis, read-out: MIC in vitro
Description: as §1

S. aureus SK 23390 = assay: MIC in vitro; type: cell-based; conditions: S. aureus SK 23390; for MIC: Staphylococcus aureus, SK23390, Table 1, read-out: MIC in vitro
Description: as §1

Proteus morgani 179 = assay: MIC in vitro; type: cell-based; conditions: Table 1, read-out: MIC in vitro
Description: as §1

S. aureus HH 127 = assay: MIC in vitro; type: cell-based; conditions: Staphylococcus aureus, HH127; Table 1; S. aureus HH 127; read-out: MIC in vitro
Description: as §1

E. coli HH 33779 = assay: MIC in vitro; type: cell-based; conditions: for MIC: Escherichia coli
Description: as §1

Salmonella ATCC 12176 = assay: MIC in vitro; type: cell-based; conditions: for MIC: Salmonella
Description: as §1

Kleb. pneumo. 4200 = assay: In vivo mouse protection, Kleb. pneumo. 4200; conditions: sc, Table 2, Kleb. pneumo. 4200, s.c., read-out: ED50 in vivo
Serra. marc ATCC 13880 = assay: MIC in vitro; type: cell-based, Serratia marcescens; conditions: for MIC: Serratia marcescens; for MIC in vitro: Table 1
Description: as §1

Psuedo. sp. HH 63 = assay: MIC in vitro; type: cell-based, Pseudo. aeruginosa; conditions: Pseudomonas aeruginosa; Table 1; Psuedo. sp. HH 63; read-out: MIC in vitro
Description: as §1

S. villaluz = assay: MIC in vitro; type: cell-based; conditions: Table 1
Description: as §1

[2] = ATCC13048, Table 1, Entero. aerog. ATCC 13048, read-out: MIC in vitro
[3] = Escherichia coli, 12140, sc, s.c.
[4] = HH31254, Table 1, read-out: MIC in vitro
[5] = SK12140, Table 1, read-out: MIC in vitro
[6] = HH117, Table 1, shigella HH 117, read-out: MIC in vitro
[7] = HH33779, Table 1, E. coli HH 33779, read-out: MIC in vitro
[8] = ATCC12176, Table 1, read-out: MIC in vitro
[9] = ATCC13880, Table 1, Serra. marc ATCC 13880, read-out: MIC in vitro
[10] = SK12140, read-out: MIC in vitro, Table 1
[11] = HH31254, read-out: MIC in vitro, Table 1

SMILES | MIC [1, 2] [µg/mL] | ED50 (E. coli 12140; [3]) [mg/kg] | MIC (Entero. cloacae HH 31254; [4]) [µg/mL] | MIC (Kleb. pneumo. SK 1200) [µg/mL] | MIC (Kleb. pneumo. SK 4200) [µg/mL] | MIC in vitro (Kleb. pneumo. SK 4200) [µg/mL] | MIC (E. coli SK 12140; [5]) [µg/mL] | MIC (shigella HH 117; [6]) [µg/mL] | MIC (Strep. Faecalis HH 34358) [µg/mL] | MIC (S. aureus SK 23390) [µg/mL] | MIC (Proteus morgani 179) [µg/mL] | MIC (S. aureus HH 127) [µg/mL] | MIC (E. coli HH 33779; [7]) [µg/mL] | MIC (Salmonella ATCC 12176; [8]) [µg/mL] | ED50 (Kleb. pneumo. 4200) [mg/kg] | MIC (Serra. marc ATCC 13880; [9]) [µg/mL] | MIC (Psuedo. sp. HH 63) [µg/mL] | MIC (Kleb. pneumo. SK 1200; Table 1, Kleb. pneumo. SK 1200) [µg/mL] | MIC (S. villaluz) [µg/mL] | MIC (E. coli SK 12140; [10]) [µg/mL] | also measured
O=C(Cc1cccs1)NC1C(=O)N2C(C(=O)O)=C(CSc3nnnn3CS(=O)(=O)O)CS[C@H]12 (stereo partly shown) [V, 7-(2-thienylacetamido)-3-(1-sulfomethyltetrazol-5-ylthiomethyl)-3-cephem-4-carboxylic acid] | 12.5 (≈ 23.5 µM) | 4 | 1.6 (≈ 3 µM) | 0.4 (≈ 0.751 µM) | 1.6 (≈ 3 µM) | 0.8 (≈ 1.5 µM) | 1.6 (≈ 3 µM) | 1.6 (≈ 3 µM) | 25 (≈ 46.9 µM) | 0.4 (≈ 0.751 µM) | > 200 | 0.8 (≈ 1.5 µM) | 6.3 (≈ 11.8 µM) | 0.8 (≈ 1.5 µM) | 0.26 | 100 (≈ 188 µM) | > 200 |  |  |  | ED50 (E. coli 12140; Escherichia coli, 12140, po, p.o.): > 50 mg/kg; MIC in vitro (Strep. Faecalis HH 34358): 50 µg/mL (≈ 93.9 µM); MIC in vitro (Serra. marc ATCC 13880; Serra. marc ATCC 13880): 200 µg/mL (≈ 376 µM)
O=C(Cc1cccs1)NC1C(=O)N2C(C(=O)O)=C(CSc3nnnn3CCS(=O)(=O)O)CS[C@H]12 (stereo partly shown) [VI, 7-(2-Thienylacetamido)-3-[1-(2-sulfoethyl)tetrazol-5-ylthiomethyl]-3-cephem-4-carboxylic acid] | 25 (≈ 45.7 µM) | 4.4 | 6.3 (≈ 11.5 µM) |  | 1.6 (≈ 2.93 µM) |  |  | 3.1 (≈ 5.67 µM) | 50 (≈ 91.5 µM) | 0.8 (≈ 1.46 µM) | > 200 | 1.6 (≈ 2.93 µM) | 12.5 (≈ 22.9 µM) | 0.8 (≈ 1.46 µM) | 1.56 | > 200 | > 200 | 0.8 (≈ 1.46 µM) | 3.1 (≈ 5.67 µM) | 3.1 (≈ 5.67 µM) | 
O=C(CSC(F)(F)F)NC1C(=O)N2C(C(=O)O)=C(CSc3nnnn3CS(=O)(=O)O)CSC12 (stereo not shown) [VII, 7-Trifluoromethylthioacetamido-3-(1-sulfomethyltetrazol-5-ylthiomethyl)-3-cephem-4-carboxylic acid] |  | 0.86 | 3.1 (≈ 5.63 µM) |  | 0.4 (≈ 0.727 µM) | 0.2 (≈ 0.363 µM) | 0.8 (≈ 1.45 µM) |  | 50 (≈ 90.8 µM) | 0.8 (≈ 1.45 µM) | 100 (≈ 182 µM) | 0.8 (≈ 1.45 µM) | 3.1 (≈ 5.63 µM) |  | 0.24 | 200 (≈ 363 µM) | > 200 | 0.2 (≈ 0.363 µM) |  | 0.4 (≈ 0.727 µM) | MIC (Entero. cloacae HH 31254; [11]): 0.8 µg/mL (≈ 1.45 µM); MIC (shigella HH 117; Shigella, HH117, read-out: MIC in vitro): 0.8 µg/mL (≈ 1.45 µM); MIC in vitro (S. aureus SK 23390; Table 1): 0.4 µg/mL (≈ 0.727 µM); MIC in vitro (E. coli HH 33779; Table 1, E. coli HH 33779): 1.6 µg/mL (≈ 2.91 µM); MIC (Salmonella ATCC 12176; ATCC12176, read-out: MIC in vitro, Table 1): 0.4 µg/mL (≈ 0.727 µM); MIC in vitro (Salmonella ATCC 12176; Table 1): 0.2 µg/mL (≈ 0.363 µM); MIC in vitro (Serra. marc ATCC 13880; Serra. marc ATCC 13880): 100 µg/mL (≈ 182 µM)
NCc1ccccc1CC(=O)NC1C(=O)N2C(C(=O)O)=C(CSc3nnnn3CS(=O)(=O)O)CS[C@H]12 (stereo partly shown) [XI, 7-(o-aminomethylphenylacetamido)-3-(1-sulfomethyltetrazol-5-ylthiomethyl)-3-cephem-4-carboxylic acid] |  | 21.5 |  |  | ≤ 0.1 |  |  |  | 25 (≈ 45 µM) | 1.6 (≈ 2.88 µM) | 50 (≈ 90 µM) | 1.6 (≈ 2.88 µM) |  | ≤ 0.1 |  |  | > 200 | ≤ 0.1 | 200 (≈ 360 µM) | 0.2 (≈ 0.36 µM) | MIC ([1]; ATCC13048, read-out: MIC in vitro): 0.8 µg/mL (≈ 1.44 µM); MIC (Entero. cloacae HH 31254; [11]): 0.8 µg/mL (≈ 1.44 µM); MIC (E. coli HH 33779; HH33779, read-out: MIC in vitro): 0.4 µg/mL (≈ 0.72 µM); MIC (Serra. marc ATCC 13880; ATCC13880, read-out: MIC in vitro): 6.3 µg/mL (≈ 11.3 µM)
N#CCC(=O)NC1C(=O)N2C(C(=O)O)=C(CSc3nnnn3CS(=O)(=O)O)CS[C@H]12 (stereo partly shown) [XII, 7-cyanoacetamido-3-(1-sulfomethyltetrazol-5-ylthiomethyl)-3-cephem-4-carboxylic acid] | 3.1 (≈ 6.52 µM) |  | 1.6 (≈ 3.36 µM) | 0.4 (≈ 0.841 µM) | 0.8 (≈ 1.68 µM) |  | 0.8 (≈ 1.68 µM) |  | 50 (≈ 105 µM) | 1.6 (≈ 3.36 µM) | 200 (≈ 421 µM) | 1.6 (≈ 3.36 µM) | 1.6 (≈ 3.36 µM) | 0.4 (≈ 0.841 µM) |  | 50 (≈ 105 µM) | > 200 |  | > 200 |  | 
